In patent US20230042881A1, “MODULATORS OF INTEGRATED STRESS RESPONSE PATHWAY” (Praxis Biotech LLC, priority 2021, published 2023):

How the values were obtained:
[1] = test system: Chinese hamster ovary (CHO) cells; test: Protein synthesis assay (puromycin incorporation, Western blot); assay type: cell-based; conditions: Cricetulus griseus; unstressed CHO cells (without Tg), 2 hours, 1 μM test compound; media alone = 100%; read-out: % Protein synthesis relative to untreated (1 μM test compound)
Experimental: Chinese hamster ovary (CHO) cells were maintained at 37° C. and 5% CO2 in Dulbecco's Modified Eagle's Media (DMEM) supplemented with 10% fetal bovine serum, 2 mM L-glutamine, 100 U/ml penicillin, and 100 μg/ml streptomycin. After reaching 80% of confluence, cells were detached and seeded on 6 well plates in complete media, allowed to recover overnight and treated for 2 hours with 1 μM of the test compound (to assess protein synthesis levels in unstressed condition), or for 2 hours with 300 nM Tg in the presence of 1 μM of the test compound (to assess the recovery of protein synthesis in a stressed condition). Cells with Tg alone were used as controls.
After the 2 hours treatments, media were replaced by adding 10 μg/ml puromycin (Sigma Aldrich #P8833) in complete media for 30 min. Media were removed and cells were lysed with SDS-PAGE lysis buffer. Lysates were transferred to 1.5 ml tubes and sonicated for 3 min and total protein amount were quantified using BCA Protein Assay Kit (Pierce). Equal amount of protein (30 μg) was loaded on SDS-PAGE gels.
A HRP-conjugated secondary antibody (Rockland) was employed to detect immune-reactive bands using enhanced chemiluminescence (ECL Western Blotting Substrate, Pierce). Quantification of protein bands was done by densitometry using ImageJ software.
The percentage levels were normalized to the media alone condition, which correspond to 100% protein synthesis. […]

ATF4 = ATF4 expression inhibition assay (ATF4 5′UTR luciferase reporter, thapsigargin-stressed); assay type: cell-based; conditions: Homo sapiens, HEK-293T; HEK293T cells carrying ATF4 luciferase reporter, 100 nM thapsigargin (Tg), 3 hours at 37° C.; read-out: ATF4 inhibition
Experimental: The ATF4 reporter was prepared by fusing the human full length 5′UTR of ATF4 (NCBI Accession No. BC022088.2) upstream of the firefly luciferase coding sequence lacking the initiator methionine. The fused sequence was cloned into pLenti-EF1a-C-Myc-DDK-IRES-Puro cloning vector (Origen #PS100085) using standard methods.
HEK293T cells carrying the ATF4 luciferase reporter were plated on 96-well plates (Nunc) at 10,000 cells per well. Cells were treated two days after seeding with 100 nM thapsigargin (Tg) (Sigma-Aldrich #T9033) in the presence of different concentrations of selected compounds ranging from 0.1 nM to […]. Cells without treatment or cells treated with Tg alone were used as controls. Assay plates containing cells were incubated for 3 hours at 37° C.
Luciferase reactions were performed using Luciferase Assay System (Promega #E1501) as specified by the manufacturer. Luminescence was read with an integration time of 1 s and a gain of 110 using a Cytation-5 multi-mode microplate reader (BioTek).

| Compound | IC50 (ATF4) [nM] | activity at 1 µM [1] [%] |
| --- | --- | --- |
| O=C(CO[C@H]1C[C@@H](OC(F)(F)F)C1)N[C@H]1CC[C@H](C(=O)Nc2nc3cc(Cl)ccc3s2)CC1 [Compound 120, trans-N-(5-chlorobenzo[d]thaizol-2-yl)-4-(2-(cis-3-(trifluoromethoxy)cyclobutoxy)acetamido)cyclohexanecarboxamide] | 10 to 100 | 122 |
| O=C(NN1CCC(C(=O)Nc2ccc3cc(Cl)ccc3n2)CC1)c1cc2cc(Cl)ccc2o1 [Compound 12, 1-(5-chlorobenzofuran-2-carboxamido)-N-(6-chloroquinolin-2-yl)piperidine-4-carboxamide] | < 10 | 121 |
| O=C(Nc1ccc2cc(Cl)ccc2n1)C1CCN(C[C@@H](O)COc2ccc(Cl)c(F)c2)CC1 [Compound 8, (R)-1-(3-(4-chloro-3-fluorophenoxy)-2-hydroxypropyl)-N-(6-chloroquinolin-2-yl)piperidine-4-carboxamide] | 10 to 100 | 156 |
| O=C(N[C@H]1CC[C@H](C(=O)Nc2ccc3cc(Cl)ccc3n2)CC1)[C@H]1CNc2cc(Cl)ccc2O1 [Compound 6, trans-(R)-6-chloro-N-(4-((6-chloroquinolin-2-yl)carbamoyl)cyclohexyl)-3,4-dihydro-2H-benzo[b][1,4]oxazine-2-carboxamide] | < 10 | 100 |
| O=C(COc1ccc(Cl)c(F)c1)NC1CCN(C(=O)Nc2ccc3cc(Cl)ccc3n2)CC1 [Compound 15, 4-(2-(4-chloro-3-fluorophenoxy)acetamido)-N-(6-chloroquinolin-2-yl)piperidine-1-carboxamide] | 10 to 100 | 177 |
| O=C(Nc1ccc2cc(Cl)ccc2n1)C1CCN(CCCOc2ccc(Cl)c(F)c2)CC1 [Compound 10, 1-(3-(4-chloro-3-fluorophenoxy)propyl)-N-(6-chloroquinolin-2-yl)piperidine-4-carboxamide] | 10 to 100 | 153 |

Continued, in another order:

| IC50 (ATF4) [nM] | Compound | activity at 1 µM [1] [%] |
| --- | --- | --- |
| < 10 | O=C(COc1ccc(Cl)cc1)NN1CCC(C(=O)Nc2ccc3cc(Cl)ccc3n2)CC1 [Compound 18, 1-(2-(4-chlorophenoxy)acetamido)-N-(6-chloroquinolin-2-yl)piperidine-4-carboxamide] | 75.6 |
| < 10 | O=C(NN1CCC(C(=O)NCC2CNc3cc(Cl)ccc3O2)CC1)c1ccc2cc(Cl)ccc2n1 (centres unmarked) [Compound 72, 6-chloro-N-(4-(((6-chloro-3,4-dihydro-2H-benzo[b][1,4]oxazin-2-yl)methyl)carbamoyl)piperidin-1-yl)quinoline-2-carboxamide] | 92.2 |
| 10 to 100 | O=C(COc1ccc(Cl)c(F)c1)NN1CCC(C(=O)Nc2nc3cc(Cl)ccc3s2)CC1 [Compound 116, 1-(2-(4-chloro-3-fluorophenoxy)acetamido)-N-(5-chlorobenzo[d]thiazol-2-yl)piperidine-4-carboxamide] | 116 |
| < 10 | O=C(NN1CCC(C(=O)Nc2ccc3cc(Cl)ccc3n2)CC1)c1ccc2cc(Cl)ccc2n1 [Compound 19, 6-chloro-N-(4-((6-chloroquinolin-2-yl)carbamoyl)piperidin-1-yl)quinoline-2-carboxamide] | 122 |
| < 10 | O=C(N[C@H]1CC[C@H](C(=O)Nc2nc3cc(Cl)ccc3s2)CC1)c1ccc2cc(Cl)ccc2n1 [Compound 118, 6-chloro-N-(trans-4-(5-chlorobenzo[d]thiazol-2-ylcarbamoyl)cyclohexyl)quinoline-2-carboxamide] | 109 |
| < 10 | O=C(NN1CCC(C(=O)Nc2nc3cc(Cl)ccc3s2)CC1)c1ccc2cc(Cl)ccc2n1 [Compound 119, 6-chloro-N-(4-(5-chlorobenzo[d]thiazol-2-ylcarbamoyl)piperidin-1-yl)quinoline-2-carboxamide] | 118 |
| 10 to 100 | O=C(COc1ccc(Cl)c(F)c1)N[C@H]1CC[C@H](C(=O)NCc2ccc3cc(Cl)ccc3n2)CC1 [Compound 22, trans-4-(2-(4-chloro-3-fluorophenoxy)acetamido)-N-((6-chloroquinolin-2-yl)methyl)cyclohexanecarboxamide] | 100 |
